According to patent US20100056508A1, “AMINE DERIVATIVES AND THEIR USE IN BETA-2-ADRENORECEPTOR MEDIATED DISEASES” (ASTRAZENECA AB, priority 2006, published 2010):
Where a name gives a salt, the structure may show the parent alone.

Columns and labels:
Adrenergic β2 = target: T1, Adrenergic β2 (Homo sapiens, UniProt P07550); assay: Adrenergic β2 mediated cAMP production in H292 cells (AlphaScreen cAMP detection); type: cell-based; set-up: key to β2 Int Act: fraction of formoterol maximum activity (formoterol = 1); conditions: for β2 Int Act: Intrinsic Activity as a fraction relative to the maximum activity determined for formoterol; for EC50: cAMP production, 60 minutes at room temperature, 300 μM rolipram, read-out: β2 pEC50 (converted)
T1 construct: Adherent H292 cells were removed from tissue culture flasks; endogenous in cells; host or cells: H292 cells
Outline: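 H292 cells pre-treated 10 min with rolipram (300 μM final), then given agonist for 60 min at room temperature in HBSS/10 mM HEPES pH 7.4, 1.6% DMSO final. Lysate cAMP measured by AlphaScreen against a cAMP standard curve. Four-parameter fit gives pEC50; intrinsic activity relative to formoterol maximum.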

[1] = target: T2, recombinant human Dopamine Subtype D2s receptors (Homo sapiens, UniProt P14416); assay: Dopamine D2 selectivity assay, [3H]-spiperone binding to membranes; conditions: inhibition of [3H]-spiperone binding, read-out: D2 bind pIC50 (converted)
T2 construct: purchased Perkin Elmer
Outline: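 Human D2s receptor membranes incubated 2 h at room temperature with 0.16 nM [3H]-spiperone and test compound in HEPES buffer pH 7.4 (120 mM NaCl, 0.1% gelatin). Non-specific binding defined with 10 μM haloperidol; filter-bound radioactivity counted, pIC50 from four-parameter logistic fit.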

[2] = target: T3, recombinant human adrenergic beta 1 receptors (Homo sapiens, UniProt P08588); assay: Adrenergic β1 selectivity assay, [125I]-Iodocyanopindolol binding to membranes; conditions: inhibition of [125I]-Iodocyanopindolol binding, read-out: β1 bind pIC50 (converted)
T3 construct: purchased Euroscreen
Description: Membranes containing recombinant human adrenergic beta 1 receptors were obtained from Euroscreen. These were diluted in Assay Buffer (50 mM HEPES, 1 mM EDTA, 120 mM NaCl, 0.1% gelatin, pH 7.4) to provide a final concentration of membranes that gave a clear window between maximum and minimum specific binding.
Assays were performed in U-bottomed 96-well polypropylene plates. 10 μL [^125I]-Iodocyanopindolol (0.036 nM final concentration) and 10 μL of test compound (10× final concentration) were added to each test well. For each assay plate 8 replicates were obtained for [^125I]-Iodocyanopindolol binding in the presence of 10 μL vehicle (10% (v/v) DMSO in Assay Buffer; defining maximum binding) or 10 μL Propranolol (10 μM final concentration; defining non-specific binding (NSB)). Membranes were then added to achieve a final volume of 100 μL. The plates were incubated for 2 hours at room temperature and then filtered onto PEI coated GF/B filter plates, pre-soaked for 1 hour in Assay Buffer, using a 96-well plate Tomtec cell harvester. Five washes with 250 μL wash buffer (50 mM HEPES, 1 mM EDTA, 120 mM NaCl, pH 7.4) were performed at 4° C. to remove unbound radioactivity. The plates were dried then sealed from underneath using Packard plate sealers and MicroScint-O (50 μL) was added to each well. The plates were sealed (TopSeal A) and filter-bound radioactivity was measured with a scintillation counter (TopCount, Packard BioScience) using a 3-minute counting protocol.
Total specific binding (B0) was determined by subtracting the mean NSB from the mean maximum binding. NSB values were also subtracted from values from all other wells. […] Data was fitted to a four parameter logistic equation to determine the compound potency, which was expressed as pIC50 (negative log molar concentration inducing 50% inhibition of [^125I]-Iodocyanopindolol binding).

T3 sequence (P08588 whole entry): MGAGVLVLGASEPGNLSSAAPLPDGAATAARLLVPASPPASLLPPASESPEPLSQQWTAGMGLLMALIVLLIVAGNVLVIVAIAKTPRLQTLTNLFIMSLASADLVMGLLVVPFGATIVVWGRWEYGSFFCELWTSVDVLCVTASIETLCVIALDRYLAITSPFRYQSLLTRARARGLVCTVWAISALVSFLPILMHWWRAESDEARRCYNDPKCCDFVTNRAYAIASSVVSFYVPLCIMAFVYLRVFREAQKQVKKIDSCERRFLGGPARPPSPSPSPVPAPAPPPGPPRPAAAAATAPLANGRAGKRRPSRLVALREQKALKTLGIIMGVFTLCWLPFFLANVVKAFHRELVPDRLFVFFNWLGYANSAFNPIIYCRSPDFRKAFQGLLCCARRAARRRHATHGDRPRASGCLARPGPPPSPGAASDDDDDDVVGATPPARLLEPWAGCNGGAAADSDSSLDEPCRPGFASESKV
T1 sequence (P07550 whole entry): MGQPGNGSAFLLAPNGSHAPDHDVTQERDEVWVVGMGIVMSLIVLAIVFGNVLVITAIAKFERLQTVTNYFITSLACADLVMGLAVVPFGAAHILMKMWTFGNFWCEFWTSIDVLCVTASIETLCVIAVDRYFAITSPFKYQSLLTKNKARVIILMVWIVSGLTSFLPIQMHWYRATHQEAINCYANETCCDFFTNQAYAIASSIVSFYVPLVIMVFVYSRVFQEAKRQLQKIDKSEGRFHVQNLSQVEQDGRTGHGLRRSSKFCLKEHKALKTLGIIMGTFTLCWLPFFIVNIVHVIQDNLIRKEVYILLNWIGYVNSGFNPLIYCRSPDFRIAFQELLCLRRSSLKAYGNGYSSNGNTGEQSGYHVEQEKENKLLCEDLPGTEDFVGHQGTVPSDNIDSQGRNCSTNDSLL
T2 sequence (P14416 1-414 isoform P14416-2): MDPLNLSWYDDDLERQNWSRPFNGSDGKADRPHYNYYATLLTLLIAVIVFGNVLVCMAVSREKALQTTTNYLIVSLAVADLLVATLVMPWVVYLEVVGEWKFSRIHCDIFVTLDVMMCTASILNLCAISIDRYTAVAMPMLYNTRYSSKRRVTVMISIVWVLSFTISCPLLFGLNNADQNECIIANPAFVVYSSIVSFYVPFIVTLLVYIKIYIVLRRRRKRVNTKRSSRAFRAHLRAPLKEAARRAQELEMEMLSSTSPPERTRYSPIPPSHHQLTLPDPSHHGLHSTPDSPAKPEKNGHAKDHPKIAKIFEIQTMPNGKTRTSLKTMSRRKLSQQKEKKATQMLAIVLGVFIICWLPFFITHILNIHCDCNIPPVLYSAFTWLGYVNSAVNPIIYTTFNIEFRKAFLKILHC

Compound | β2 Int Act (Adrenergic β2) | EC50 (Adrenergic β2) [nM] | IC50 [1] [nM] | IC50 [2] [nM]
CCCC[C@@H](C)N(CCNCCc1ccc(O)c2c1OCC(=O)N2)C(=O)CCNCCc1cc(F)cc(F)c1 [Example 51, (R)-3-(3,5-Difluorophenethylamino)-N-(hexan-2-yl)-N-(2-(2-(5-hydroxy-3-oxo-3,4-dihydro-2H-benzo[b][1,4]oxazin-8-yl)ethylamino)ethyl)propanamide bis(trifluoroacetate)] | 0.94 | 1.58 | 39.8 | 2000
O=C1COc2c(CCNCCN(C(=O)CCNCCc3cc(F)cc(Cl)c3)C3CCCCC3)ccc(O)c2N1 [Example 41, 3-(3-Chloro-5-fluorophenethylamino)-N-cyclohexyl-N-(2-(2-(5-hydroxy-3-oxo-3,4-dihydro-2H-benzo[b][1,4]oxazin-8-yl)ethylamino)ethyl)propanamide (trifluoroacetate)] | 0.95 | 3.16 | 200 | > 7940
CCCC[C@@H](C)N(CCNCCc1ccc(O)c2c1OCC(=O)N2)C(=O)CCNCCc1cc(F)ccc1C [Example 57, (R)-3-(5-Fluoro-2-methylphenethylamino)-N-(hexan-2-yl)-N-(2-(2-(5-hydroxy-3-oxo-3,4-dihydro-2H-benzo[b][1,4]oxazin-8-yl)ethylamino)ethyl)propanamide bis(trifluoroacetate)] | 0.91 | 7.94 | 15.8 | 1580
CCCC[C@@H](C)N(CCNCCc1ccc(O)c2c1OCC(=O)N2)C(=O)CCNCCc1ccccc1 [Example 25, (R)—N-(Hexan-2-yl)-N-(2-(2-(5-hydroxy-3-oxo-3,4-dihydro-2H-benzo[b][1,4]oxazin-8-yl)ethylamino)ethyl)-3-(phenethylamino)propanamide bis(trifluoroacetate)] | 0.9 | 1 | 100 | 2510
O=C1COc2c(CCNCCN(C(=O)CCOCCc3cccc(F)c3)C3CCCCC3)ccc(O)c2N1 [Example 74, N-Cyclohexyl-3-(3-fluorophenethoxy)-N-(2-(2-(5-hydroxy-3-oxo-3,4-dihydro-2H-benzo[b][1,4]oxazin-8-yl)ethylamino)ethyl)propanamide trifluoroacetate] | 0.97 | 2 | 2000 | 2510
O=C1COc2c(CCNCCN(C(=O)CCOCCc3cccc(Cl)c3)C3CCCCC3)ccc(O)c2N1 [Example 77, 3-(3-Chlorophenethoxy)-N-cyclohexyl-N-(2-(2-(5-hydroxy-3-oxo-3,4-dihydro-2H-benzo[b][1,4]oxazin-8-yl)ethylamino)ethyl)propanamide trifluoroacetate] | 0.97 | 2 | 2000 | 3160
Cc1cc(CCNCCC(=O)N(CCNCCc2ccc(O)c3c2OCC(=O)N3)C2CCCCC2)ccc1F [Example 40, N-Cyclohexyl-3-(4-fluoro-3-methylphenethylamino)-N-(2-(2-(5-hydroxy-3-oxo-3,4-dihydro-2H-benzo[b][1,4]oxazin-8-yl)ethylamino)ethyl)propanamide bis(trifluoroacetate)] | 0.96 | 251 | 398 | > 7940
O=C1COc2c(CCNCCN(C(=O)CCNCCc3cc(F)ccc3F)C3CCCCCC3)ccc(O)c2N1 [Example 64, N-Cycloheptyl-3-(2,5-difluorophenethylamino)-N-(2-(2-(5-hydroxy-3-oxo-3,4-dihydro-2H-benzo[b][1,4]oxazin-8-yl)ethylamino)ethyl)propanamide bis(trifluoroacetate)] | 0.88 | 0.631 | 63.1 | 1260
